Experimental data taken from PubChem BioAssay (NCI).
“And” between values parts separate entries of the source, which are not always exact repeats. Equal entries are not always repeated.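 Dose response: 5 concentrations. Exposure: 48 h. Format: 96-well plates. Endpoint: linear interpolation; highest concentration if not reached. GI50 marks 50% less growth. TGI is the concentration that stops growth completely.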

Assays:
Experiment in all cases: NCI tumour cell line growth inhibition, 48 h
SF-268 CNS = tested on: SF-268 CNS
RPMI-8226 leukemia = tested on: RPMI-8226 leukemia
HCC-2998 colon = tested on: HCC-2998 colon
BT-549 breast = tested on: BT-549 breast
U251 CNS = tested on: U251 CNS
NCI/ADR-RES ovarian = tested on: NCI/ADR-RES ovarian
NCI-H522 lung = tested on: NCI-H522 lung
MDA-MB-435 = tested on: MDA-MB-435
IGROV1 ovarian = tested on: IGROV1 ovarian
NCI-H226 lung = tested on: NCI-H226 lung

## CN(C)CCNC(=O)c1cccc2cc([N+](=O)[O-])ccc12
SF-268 CNS
  GI50: 1.87 µM and 0.22 µM
  TGI: 10.9 µM and 1.16 µM
RPMI-8226 leukemia
  TGI: 2.29 µM and 0.705 µM
HCC-2998 colon
  GI50: 1.54 µM and 0.213 µM
  TGI: 3.74 µM and 0.986 µM
BT-549 breast
  TGI: 13.8 µM
U251 CNS
  GI50: 2.19 µM and 0.233 µM
  TGI: 11.9 µM and 2.79 µM
NCI/ADR-RES ovarian
  TGI: 5.27 µM
NCI-H522 lung
  TGI: 2.88 µM
MDA-MB-435
  TGI: 7.7 µM
IGROV1 ovarian
  GI50: 1.79 µM and 0.245 µM
  TGI: 14.2 µM and 2.32 µM

## Cc1cc2c(=O)cc(-c3ccc(C(F)(F)F)cc3)oc2c(C(=O)O)c1C
SF-268 CNS
  TGI: > 100 µM
RPMI-8226 leukemia
  TGI: > 100 µM
NCI-H226 lung
  TGI: > 100 µM
U251 CNS
  TGI: > 100 µM
NCI-H522 lung
  TGI: > 100 µM
IGROV1 ovarian
  TGI: > 100 µM

## CNS(=O)(=O)c1ccccc1C(=N)c1ccccc1
SF-268 CNS
  TGI: > 100 µM
RPMI-8226 leukemia
  TGI: > 100 µM
BT-549 breast
  TGI: > 100 µM
NCI-H226 lung
  TGI: > 100 µM
U251 CNS
  TGI: > 100 µM
NCI/ADR-RES ovarian
  TGI: > 100 µM
NCI-H522 lung
  TGI: > 100 µM
MDA-MB-435
  TGI: > 100 µM
IGROV1 ovarian
  TGI: > 100 µM

## CC(C)(C)CC(C)(C)N(CSc1ccc(Cl)cc1)CSc1ccc(Cl)cc1
SF-268 CNS
  GI50: 0.803 µM
  TGI: 4.39 µM
RPMI-8226 leukemia
  GI50: 2.17 µM
  TGI: 5.11 µM
HCC-2998 colon
  GI50: 4.62 µM
  TGI: 16.4 µM
NCI-H226 lung
  GI50: 0.836 µM
  TGI: 2.67 µM
U251 CNS
  GI50: 0.415 µM
  TGI: 2.09 µM
NCI/ADR-RES ovarian
  GI50: 2.42 µM
  TGI: > 100 µM
NCI-H522 lung
  GI50: 1.65 µM
  TGI: 3.08 µM
MDA-MB-435
  GI50: 1.45 µM
  TGI: 4.05 µM
IGROV1 ovarian
  GI50: 0.745 µM
  TGI: 2.7 µM

## NC1=NN(c2ccccc2)C(=O)C1/C(=N\NC(=O)c1cc2ccccc2cc1O)C(=O)Nc1nc([N+](=O)[O-])cs1 (stereo not drawn)
SF-268 CNS
  TGI: > 100 µM
RPMI-8226 leukemia
  TGI: 87.8 µM
HCC-2998 colon
  TGI: > 100 µM
NCI-H226 lung
  TGI: > 100 µM
U251 CNS
  TGI: > 100 µM
NCI-H522 lung
  TGI: 37.2 µM
IGROV1 ovarian
  TGI: 94.4 µM

## O=[N+]([O-])c1cccc(/C=C/c2ccccn2)c1
SF-268 CNS
  GI50: 24.7 µM
  TGI: > 100 µM
RPMI-8226 leukemia
  GI50: 40.2 µM
  TGI: > 100 µM
HCC-2998 colon
  GI50: 44.9 µM
  TGI: > 100 µM
NCI-H226 lung
  GI50: 33.5 µM
  TGI: > 100 µM
U251 CNS
  GI50: 6.68 µM
  TGI: > 100 µM
NCI/ADR-RES ovarian
  GI50: 22.9 µM
  TGI: > 100 µM
MDA-MB-435
  GI50: 67 µM
  TGI: > 100 µM
IGROV1 ovarian
  GI50: 28 µM
  TGI: > 100 µM

## COc1cc[c]([Sb]([Br])([CH]=C(C)C)([CH]=C(C)C)[CH]=C(C)C)cc1
SF-268 CNS
  GI50: 3.52 µM
  TGI: 35.8 µM
RPMI-8226 leukemia
  GI50: 0.868 µM
  TGI: 5.47 µM
HCC-2998 colon
  GI50: 6.53 µM
  TGI: > 100 µM
U251 CNS
  GI50: 9.37 µM
  TGI: 72.8 µM
NCI-H522 lung
  GI50: 2.48 µM
  TGI: 9.23 µM
IGROV1 ovarian
  GI50: 3.06 µM
  TGI: 66.1 µM

## COc1cc(CNc2nc3cc(N)cc(N)c3nc2-c2ccccc2)cc(OC)c1OC
SF-268 CNS
  GI50: 2.93 µM
  TGI: 14 µM
RPMI-8226 leukemia
  GI50: 0.697 µM
  TGI: 3 µM
BT-549 breast
  GI50: 3.84 µM
  TGI: 11.2 µM
NCI-H226 lung
  GI50: 9.96 µM
  TGI: 22.4 µM
U251 CNS
  GI50: 1.73 µM
  TGI: 6.25 µM
NCI/ADR-RES ovarian
  GI50: 10.2 µM
  TGI: 21.8 µM
NCI-H522 lung
  GI50: > 50 µM
  TGI: > 50 µM
MDA-MB-435
  GI50: 0.227 µM
  TGI: 0.907 µM
IGROV1 ovarian
  GI50: 9.11 µM
  TGI: > 50 µM

## O=C(c1ccccn1)c1nc(-c2ccc(Cl)c(Cl)c2)nc2ccc(Cl)cc12
RPMI-8226 leukemia
  TGI: > 100 µM
HCC-2998 colon
  TGI: > 100 µM
NCI-H226 lung
  TGI: > 100 µM
U251 CNS
  TGI: > 100 µM
IGROV1 ovarian
  TGI: > 100 µM

## CCC(C(=O)c1cccs1)C(O)(C(F)(F)F)C(F)(F)F (stereo not drawn)
SF-268 CNS
  TGI: > 100 µM
RPMI-8226 leukemia
  TGI: > 100 µM
BT-549 breast
  TGI: > 100 µM
NCI-H226 lung
  TGI: > 100 µM
U251 CNS
  TGI: > 100 µM
NCI/ADR-RES ovarian
  TGI: > 100 µM
NCI-H522 lung
  TGI: > 100 µM
MDA-MB-435
  TGI: > 100 µM
IGROV1 ovarian
  TGI: > 100 µM

## COc1ccc2[nH]c3c(C)c4cc[n+](C)cc4c(C)c3c2c1
SF-268 CNS
  GI50: 0.0504 µM and 0.0385 µM
HCC-2998 colon
  GI50: 2.41 µM and 1.02 µM
BT-549 breast
  GI50: 0.733 µM
  TGI: 5.18 µM and 4.97 µM and 1.79 µM
NCI-H226 lung
  GI50: 0.111 µM
  TGI: 1.52 µM and 1.13 µM and 0.572 µM
U251 CNS
  GI50: 0.0689 µM and 0.0524 µM
NCI/ADR-RES ovarian
  GI50: 7.91 µM and 8.4 µM
NCI-H522 lung
  GI50: 0.167 µM and 0.0825 µM
MDA-MB-435
  GI50: 13.4 µM and 5.86 µM
  TGI: > 88.3 µM
IGROV1 ovarian
  GI50: 1.01 µM and 1.13 µM

## N.N.N.N.N.N#N.[Cl-].[Os+7]
SF-268 CNS
  GI50: > 100 µM
  TGI: > 100 µM
RPMI-8226 leukemia
  GI50: > 100 µM
  TGI: > 100 µM
HCC-2998 colon
  GI50: > 100 µM
  TGI: > 100 µM
NCI-H226 lung
  GI50: > 100 µM
  TGI: > 100 µM
U251 CNS
  GI50: > 100 µM
  TGI: > 100 µM
NCI-H522 lung
  GI50: > 100 µM
  TGI: > 100 µM
IGROV1 ovarian
  GI50: > 100 µM
  TGI: > 100 µM

## O=c1c2[nH]c3ccccc3c2nc2n1CCS2
SF-268 CNS
  GI50: > 100 µM
  TGI: > 100 µM
RPMI-8226 leukemia
  GI50: > 100 µM
  TGI: > 100 µM
HCC-2998 colon
  GI50: > 100 µM
  TGI: > 100 µM
NCI-H226 lung
  GI50: > 100 µM
  TGI: > 100 µM
U251 CNS
  GI50: > 100 µM
  TGI: > 100 µM
NCI/ADR-RES ovarian
  GI50: > 100 µM
  TGI: > 100 µM
NCI-H522 lung
  GI50: > 100 µM
  TGI: > 100 µM
MDA-MB-435
  GI50: > 100 µM
  TGI: > 100 µM

## NC(=S)N/N=C1\C(=O)N(CCc2ccccc2)C(=O)C1C(=O)NCCc1ccccc1 (stereo not drawn)
SF-268 CNS
  TGI: > 100 µM
RPMI-8226 leukemia
  TGI: > 100 µM
HCC-2998 colon
  TGI: > 100 µM
NCI-H226 lung
  TGI: > 100 µM
U251 CNS
  TGI: > 100 µM
NCI-H522 lung
  TGI: > 100 µM
IGROV1 ovarian
  TGI: > 100 µM

## O=C(N[C@@H]1C=CCC[C@@H]1c1ccccc1)OCc1ccccc1
SF-268 CNS
  TGI: 59 µM
RPMI-8226 leukemia
  TGI: 57.2 µM
HCC-2998 colon
  TGI: 49.3 µM
NCI-H226 lung
  TGI: 36.4 µM
U251 CNS
  TGI: 32.9 µM
NCI-H522 lung
  TGI: 30.9 µM
IGROV1 ovarian
  TGI: 68.9 µM

## O=C(c1ccco1)c1ccccc1C(=O)c1ccco1
SF-268 CNS
  TGI: > 100 µM
HCC-2998 colon
  TGI: > 100 µM
NCI-H226 lung
  TGI: > 100 µM
U251 CNS
  TGI: > 100 µM
IGROV1 ovarian
  TGI: > 100 µM

## FC(F)(F)c1[nH]ncc1-c1nc2c(N3CCCCC3)cc3[nH]ncc3c2c2c1CCCC2
SF-268 CNS
  GI50: 0.786 µM
  TGI: 1.97 µM
RPMI-8226 leukemia
  GI50: 0.534 µM
  TGI: 2.44 µM
HCC-2998 colon
  GI50: 0.929 µM
  TGI: 3.06 µM
BT-549 breast
  GI50: 0.643 µM
  TGI: 1.37 µM
U251 CNS
  GI50: 0.87 µM
  TGI: 5.67 µM
NCI/ADR-RES ovarian
  GI50: 2.04 µM
  TGI: > 50 µM
NCI-H522 lung
  GI50: 0.485 µM
  TGI: 3.24 µM
MDA-MB-435
  GI50: 0.741 µM
  TGI: 2.19 µM
IGROV1 ovarian
  GI50: 0.556 µM
  TGI: 3.66 µM

## CN(C)c1ccc(/C=C/c2ccnc3ccc4ccccc4c23)cc1
SF-268 CNS
  TGI: > 100 µM
RPMI-8226 leukemia
  TGI: > 100 µM
BT-549 breast
  TGI: > 100 µM
U251 CNS
  TGI: > 100 µM
NCI/ADR-RES ovarian
  TGI: > 100 µM
NCI-H522 lung
  TGI: > 100 µM
MDA-MB-435
  TGI: > 100 µM
IGROV1 ovarian
  TGI: 45.8 µM

## COc1cc(OC)cc(-c2ccc(-c3ccc(C(=N)N)s3)s2)c1
SF-268 CNS
  GI50: 1.67 µM
  TGI: 3.42 µM
RPMI-8226 leukemia
  GI50: 0.286 µM and 0.218 µM
  TGI: 0.866 µM and 0.483 µM
HCC-2998 colon
  GI50: 1.03 µM
  TGI: 2.58 µM
NCI-H226 lung
  GI50: 1.61 µM
  TGI: 3.71 µM
U251 CNS
  GI50: 0.404 µM
  TGI: 1.73 µM
NCI/ADR-RES ovarian
  GI50: 1.75 µM
  TGI: 3.58 µM
NCI-H522 lung
  GI50: 1.77 µM
  TGI: 3.55 µM
MDA-MB-435
  GI50: 0.271 µM
  TGI: 0.991 µM
IGROV1 ovarian
  GI50: 2.03 µM
  TGI: 3.99 µM
